Source: article PMC8842277, “Highly Antiproliferative Latonduine and Indolo[2,3-c]quinoline Derivatives: Complex Formation with Copper(II) Markedly Changes the Kinase Inhibitory Profile” (Journal of Medicinal Chemistry, 2022)

How the values were obtained:
Experiment in all cases: Kinase panel screen
Conditions in all cases: 10 µM compound
Aurora B = Aurora B (Homo sapiens, UniProt Q96GD4); format: biochemical
Excerpt: (§1) Figure 7 (see also Table S4) summarizes the results of this assay as a histogram plotting the percentage of the remaining enzyme activity (x-axis) as a function of added lead compound (HL^8: blue trace, 8: red trace) for each of the 50 enzymes assayed (y-axis). […] Thus, the coordination to copper(II) completely changes the kinase inhibition profile of HL^8.
(§2) Figure 7 Screening of HL^8 and 8 against 50 enzymes: histogram with % remaining activity on the x-axis plotted against the compound identifier (blue trace: HL^8 and red trace: 8) and enzyme identifier on the […]. The screen was carried out at a compound concentration of 10 μM, an enzyme concentration of 50 nM, and an ATP concentration of 100 μM.
(§3) All kinase assays were carried out using Multidrop 384’s at room temperature in a total assay volume of 25.5 μL. To plates containing 0.5 μL of HL^8 and 8, DMSO control or acid blank […], 15 μL of an enzyme mix containing enzyme […], and excess peptide/protein substrate in buffer was added. Compounds were pre-incubated in the presence of the enzyme and peptide/protein substrate for 5 min before initiation of the reaction by addition of 10 μL of ATP (final concentration selected for each kinase at 5, 20, or 50 μM). Assays were carried out for 30 min at room temperature before termination by the addition of 5 μL of orthophosphoric acid. The assay plates were then harvested onto P81 Unifilter Plates by a PerkinElmer Harvester and air dried. The dry Unifilter plates were then sealed on the addition of MicroScint O and were counted in PerkinElmer Topcount scintillation counters.

CAMKKb = CAMKKb (Homo sapiens, UniProt Q96RR4); format: biochemical
Excerpt: as §1, §2, §3

CHK2 = CHK2 (Homo sapiens, UniProt O96017); format: biochemical
Excerpt: as §1, §2, §3

CK1δ = CK1δ (Homo sapiens, UniProt P48730); format: biochemical
Excerpt: as §1, §2, §3

EF2K = EF2K (Homo sapiens, UniProt O00418); format: biochemical
Excerpt: as §1, §2, §3

EPH-A2 = EPH-A2 (Homo sapiens, UniProt P29317); format: biochemical
Excerpt: as §1, §2, §3

HER4 = HER4 (Homo sapiens, UniProt Q15303); format: biochemical
Excerpt: as §1, §2, §3

HIPK2 = HIPK2 (Homo sapiens, UniProt Q9H2X6); format: biochemical
Excerpt: as §1, §2, §3

IGF-1R = IGF-1R (Homo sapiens, UniProt P08069); format: biochemical
Excerpt: as §1, §2, §3

IRAK4 = IRAK4 (Homo sapiens, UniProt Q9NWZ3); format: biochemical
Excerpt: as §1, §2, §3

JAK3 = JAK3 (Homo sapiens, UniProt P52333); format: biochemical
Chain of JAK3 (P52333 whole entry): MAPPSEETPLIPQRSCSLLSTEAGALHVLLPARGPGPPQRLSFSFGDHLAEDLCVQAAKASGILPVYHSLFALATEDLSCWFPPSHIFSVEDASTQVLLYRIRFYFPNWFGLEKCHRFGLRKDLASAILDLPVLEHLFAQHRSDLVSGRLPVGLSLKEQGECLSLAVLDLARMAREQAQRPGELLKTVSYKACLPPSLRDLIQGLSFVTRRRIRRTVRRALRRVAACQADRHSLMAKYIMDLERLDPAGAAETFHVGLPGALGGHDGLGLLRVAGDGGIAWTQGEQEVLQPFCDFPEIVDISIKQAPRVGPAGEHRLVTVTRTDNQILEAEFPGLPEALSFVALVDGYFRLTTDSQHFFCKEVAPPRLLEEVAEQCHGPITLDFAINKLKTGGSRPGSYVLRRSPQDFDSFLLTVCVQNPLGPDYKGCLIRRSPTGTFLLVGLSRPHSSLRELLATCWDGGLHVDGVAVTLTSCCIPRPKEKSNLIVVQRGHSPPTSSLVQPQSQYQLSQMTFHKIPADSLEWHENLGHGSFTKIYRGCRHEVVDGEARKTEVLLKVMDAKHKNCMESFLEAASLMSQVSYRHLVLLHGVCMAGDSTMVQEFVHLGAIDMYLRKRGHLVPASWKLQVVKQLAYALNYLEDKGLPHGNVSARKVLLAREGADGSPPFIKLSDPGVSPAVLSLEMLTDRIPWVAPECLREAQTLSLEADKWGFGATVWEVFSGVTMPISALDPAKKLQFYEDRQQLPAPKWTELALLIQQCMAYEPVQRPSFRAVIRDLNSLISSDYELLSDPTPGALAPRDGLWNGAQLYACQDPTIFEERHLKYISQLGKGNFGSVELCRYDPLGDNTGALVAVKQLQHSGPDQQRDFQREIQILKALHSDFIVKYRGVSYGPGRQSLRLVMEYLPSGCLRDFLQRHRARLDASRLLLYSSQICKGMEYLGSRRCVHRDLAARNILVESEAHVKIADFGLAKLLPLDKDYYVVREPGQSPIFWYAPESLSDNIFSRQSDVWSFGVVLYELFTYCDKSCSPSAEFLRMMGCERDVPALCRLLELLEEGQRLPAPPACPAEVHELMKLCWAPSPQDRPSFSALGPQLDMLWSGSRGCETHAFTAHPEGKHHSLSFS
Excerpt: as §1, §2, §3

JNK1 = JNK1 (Homo sapiens, UniProt P45983); format: biochemical
Excerpt: as §1, §2, §3

Lck = Lck (Homo sapiens, UniProt P06239); format: biochemical
Excerpt: as §1, §2, §3

MARK3 = MARK3 (Homo sapiens, UniProt P27448); format: biochemical
Excerpt: as §1, §2, §3

NEK6 = NEK6 (Homo sapiens, UniProt Q9HC98); format: biochemical
Excerpt: as §1, §2, §3

PAK4 = PAK4 (Homo sapiens, UniProt O96013); format: biochemical
Excerpt: as §1, §2, §3

PKCa = PKCa (Homo sapiens, UniProt P17252); format: biochemical
Excerpt: as §1, §2, §3

PLK1 = PLK1 (Homo sapiens, UniProt P53350); format: biochemical
Excerpt: as §1, §2, §3

RIPK2 = RIPK2 (Homo sapiens, UniProt O43353); format: biochemical
Excerpt: as §1, §2, §3

ROCK 2 = ROCK 2 (Homo sapiens, UniProt O75116); format: biochemical
Chain of ROCK 2 (O75116 whole entry): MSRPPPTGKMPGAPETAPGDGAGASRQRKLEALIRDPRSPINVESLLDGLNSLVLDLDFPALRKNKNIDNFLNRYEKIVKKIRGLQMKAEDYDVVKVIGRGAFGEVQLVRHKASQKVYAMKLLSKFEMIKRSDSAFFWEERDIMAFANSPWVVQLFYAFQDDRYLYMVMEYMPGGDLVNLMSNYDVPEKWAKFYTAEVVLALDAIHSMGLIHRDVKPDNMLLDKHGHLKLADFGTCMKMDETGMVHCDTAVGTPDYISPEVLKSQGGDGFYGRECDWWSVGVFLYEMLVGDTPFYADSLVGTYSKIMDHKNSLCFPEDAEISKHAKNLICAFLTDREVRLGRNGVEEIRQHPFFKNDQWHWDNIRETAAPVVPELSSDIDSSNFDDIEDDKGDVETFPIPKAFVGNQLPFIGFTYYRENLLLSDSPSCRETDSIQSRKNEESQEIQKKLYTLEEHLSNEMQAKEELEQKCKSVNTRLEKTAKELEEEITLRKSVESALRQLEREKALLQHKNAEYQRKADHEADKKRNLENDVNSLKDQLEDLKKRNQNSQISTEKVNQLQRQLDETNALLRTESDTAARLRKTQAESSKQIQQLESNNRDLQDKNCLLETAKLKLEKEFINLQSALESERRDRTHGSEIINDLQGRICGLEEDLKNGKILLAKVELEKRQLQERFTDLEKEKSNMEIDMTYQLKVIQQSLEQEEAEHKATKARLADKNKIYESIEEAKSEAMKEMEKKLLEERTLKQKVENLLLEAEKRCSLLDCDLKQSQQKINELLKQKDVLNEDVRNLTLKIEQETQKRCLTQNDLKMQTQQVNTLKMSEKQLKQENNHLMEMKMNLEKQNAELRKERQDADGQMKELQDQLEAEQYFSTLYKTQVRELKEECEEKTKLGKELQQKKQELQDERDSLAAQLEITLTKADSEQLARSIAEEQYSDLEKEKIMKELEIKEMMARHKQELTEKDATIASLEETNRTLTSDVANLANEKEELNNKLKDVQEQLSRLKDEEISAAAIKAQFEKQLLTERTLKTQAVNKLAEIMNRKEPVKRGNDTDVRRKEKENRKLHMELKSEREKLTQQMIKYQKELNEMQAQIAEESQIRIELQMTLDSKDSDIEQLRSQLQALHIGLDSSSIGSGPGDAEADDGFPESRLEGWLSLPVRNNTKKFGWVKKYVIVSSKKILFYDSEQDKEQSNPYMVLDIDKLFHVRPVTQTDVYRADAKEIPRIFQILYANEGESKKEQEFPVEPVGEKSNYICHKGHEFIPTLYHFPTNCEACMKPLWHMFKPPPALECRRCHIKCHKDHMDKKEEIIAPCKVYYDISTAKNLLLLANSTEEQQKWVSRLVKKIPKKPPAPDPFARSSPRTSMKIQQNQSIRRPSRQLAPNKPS
Excerpt: as §1, §2, §3

RSK1 = RSK1 (Homo sapiens, UniProt Q15418); format: biochemical
Excerpt: as §1, §2, §3

S6K1 = S6K1 (Homo sapiens, UniProt P23443); format: biochemical
Excerpt: as §1, §2, §3

SmMLCK = SmMLCK (Homo sapiens, UniProt Q15746); format: biochemical
Chain of SmMLCK (Q15746 923-1914): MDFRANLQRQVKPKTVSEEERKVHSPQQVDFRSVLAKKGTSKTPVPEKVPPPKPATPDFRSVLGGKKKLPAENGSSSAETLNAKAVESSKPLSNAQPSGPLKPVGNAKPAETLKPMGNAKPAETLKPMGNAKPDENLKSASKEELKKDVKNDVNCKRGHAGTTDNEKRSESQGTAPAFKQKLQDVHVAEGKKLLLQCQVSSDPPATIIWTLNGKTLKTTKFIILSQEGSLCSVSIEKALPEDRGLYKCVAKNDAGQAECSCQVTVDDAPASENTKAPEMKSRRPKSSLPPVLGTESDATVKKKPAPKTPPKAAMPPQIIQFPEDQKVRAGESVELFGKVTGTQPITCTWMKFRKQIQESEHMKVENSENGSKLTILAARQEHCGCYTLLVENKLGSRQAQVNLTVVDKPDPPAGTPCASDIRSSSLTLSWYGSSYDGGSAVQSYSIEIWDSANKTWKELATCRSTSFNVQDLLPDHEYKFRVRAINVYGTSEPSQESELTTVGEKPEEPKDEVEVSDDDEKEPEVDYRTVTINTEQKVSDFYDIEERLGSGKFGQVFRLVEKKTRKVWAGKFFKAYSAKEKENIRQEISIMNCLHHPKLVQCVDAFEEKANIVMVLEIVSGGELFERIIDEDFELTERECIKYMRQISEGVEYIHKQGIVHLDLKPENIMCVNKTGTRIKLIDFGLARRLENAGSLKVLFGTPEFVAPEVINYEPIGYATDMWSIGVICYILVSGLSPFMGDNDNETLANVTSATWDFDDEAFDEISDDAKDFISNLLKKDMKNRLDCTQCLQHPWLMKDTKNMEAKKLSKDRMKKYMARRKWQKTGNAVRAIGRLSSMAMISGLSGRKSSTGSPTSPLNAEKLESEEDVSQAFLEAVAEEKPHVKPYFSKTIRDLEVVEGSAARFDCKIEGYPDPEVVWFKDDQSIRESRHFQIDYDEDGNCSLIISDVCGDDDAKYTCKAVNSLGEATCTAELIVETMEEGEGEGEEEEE
Excerpt: as §1, §2, §3

TAK1 = TAK1 (Homo sapiens, UniProt O43318); format: biochemical
Excerpt: as §1, §2, §3

TBK1 = TBK1 (Homo sapiens, UniProt Q9UHD2); format: biochemical
Chain of TBK1 (Q9UHD2 whole entry): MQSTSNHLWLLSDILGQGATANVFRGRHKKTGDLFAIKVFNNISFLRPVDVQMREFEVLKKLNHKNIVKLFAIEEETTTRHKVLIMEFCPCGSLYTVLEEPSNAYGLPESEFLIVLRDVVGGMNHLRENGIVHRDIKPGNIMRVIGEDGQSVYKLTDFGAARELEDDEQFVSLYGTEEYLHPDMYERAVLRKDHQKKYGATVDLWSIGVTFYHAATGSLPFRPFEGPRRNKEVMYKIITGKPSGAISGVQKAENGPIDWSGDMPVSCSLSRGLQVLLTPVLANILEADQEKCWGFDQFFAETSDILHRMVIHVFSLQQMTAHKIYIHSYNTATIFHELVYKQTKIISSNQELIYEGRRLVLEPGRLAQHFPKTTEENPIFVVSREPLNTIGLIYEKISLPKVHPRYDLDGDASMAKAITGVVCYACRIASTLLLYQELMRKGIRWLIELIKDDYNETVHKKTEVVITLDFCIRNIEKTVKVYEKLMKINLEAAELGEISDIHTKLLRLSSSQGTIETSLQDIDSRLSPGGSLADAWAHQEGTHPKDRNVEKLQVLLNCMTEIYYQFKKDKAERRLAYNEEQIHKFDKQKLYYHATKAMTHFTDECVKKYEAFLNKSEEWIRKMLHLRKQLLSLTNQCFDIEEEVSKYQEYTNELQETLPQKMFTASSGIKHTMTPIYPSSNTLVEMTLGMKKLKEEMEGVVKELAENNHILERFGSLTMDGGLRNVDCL
Excerpt: as §1, §2, §3

TTK = TTK (Homo sapiens, UniProt P33981); format: biochemical
Excerpt: as §1, §2, §3

VEG-FR = VEG-FR (Homo sapiens, UniProt P17948); format: biochemical
Excerpt: as §1, §2, §3

p38a MAPK = p38a MAPK (Homo sapiens, UniProt Q16539); format: biochemical
Chain of p38a MAPK (Q16539 whole entry): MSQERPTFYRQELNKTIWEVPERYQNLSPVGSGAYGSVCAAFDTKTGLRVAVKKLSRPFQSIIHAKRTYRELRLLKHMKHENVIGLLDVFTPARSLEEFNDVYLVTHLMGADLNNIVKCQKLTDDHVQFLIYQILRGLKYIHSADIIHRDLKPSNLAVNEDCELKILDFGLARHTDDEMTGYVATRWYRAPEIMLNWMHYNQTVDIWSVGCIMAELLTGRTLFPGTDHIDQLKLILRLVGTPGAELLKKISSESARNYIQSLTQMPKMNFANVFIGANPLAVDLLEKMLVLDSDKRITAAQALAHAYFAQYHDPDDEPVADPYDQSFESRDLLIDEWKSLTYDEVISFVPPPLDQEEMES
Excerpt: as §1, §2, §3

AMPK (hum) = format: biochemical, human
Excerpt: as §1, §2
as §3, with “Assays were carried out for 30 min at room temperature before termination by the addition of 5 μL of orthophosphoric acid. The assay plates were then harvested onto P81 Unifilter Plates by a PerkinElmer Harvester and air dried.” left out

Chain of Aurora B (Q96GD4 whole entry): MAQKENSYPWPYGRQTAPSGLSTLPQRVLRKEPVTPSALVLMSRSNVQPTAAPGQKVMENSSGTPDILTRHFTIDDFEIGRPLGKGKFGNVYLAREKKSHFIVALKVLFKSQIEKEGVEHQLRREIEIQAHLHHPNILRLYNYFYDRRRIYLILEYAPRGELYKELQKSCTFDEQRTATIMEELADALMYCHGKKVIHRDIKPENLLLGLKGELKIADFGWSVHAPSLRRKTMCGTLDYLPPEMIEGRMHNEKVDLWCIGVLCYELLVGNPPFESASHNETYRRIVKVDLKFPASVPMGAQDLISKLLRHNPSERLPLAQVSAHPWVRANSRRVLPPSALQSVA

CC(=NNc1nc2ccccc2c2c1[nH]c1ccc(Br)cc12)c1ccc(CN2CCOCC2)cn1.[Cl][Cu][Cl] [compound 8, CuCl2(HL^8)·H2O]
% remaining activity (Aurora B): 78% | % remaining activity (CAMKKb): 98% | % remaining activity (CHK2): 119% | % remaining activity (CK1δ): 98% | % remaining activity (EF2K): 108% | % remaining activity (EPH-A2): 132% | % remaining activity (HER4): 71% | % remaining activity (HIPK2): 108% | % remaining activity (IGF-1R): 60% | % remaining activity (IRAK4): 105% | % remaining activity (JAK3): 120% | % remaining activity (JNK1): 134% | % remaining activity (Lck): 54% | % remaining activity (MARK3): 112% | % remaining activity (NEK6): 43% | % remaining activity (PAK4): 144% | % remaining activity (PKCa): 80% | % remaining activity (PLK1): 90% | % remaining activity (RIPK2): 95% | % remaining activity (ROCK 2): 98% | % remaining activity (RSK1): 53% | % remaining activity (S6K1): 109% | % remaining activity (SmMLCK): 87% | % remaining activity (TAK1): 120% | % remaining activity (TBK1): 76% | % remaining activity (TTK): 64% | % remaining activity (VEG-FR): 77% | % remaining activity (p38a MAPK): 123% | % remaining activity (AMPK (hum)): 91%
